Measurements taken from ChEMBL document CHEMBL1134152, “Biological activity in human neutrophils of di-tripeptides, analogues of the chemotactic fMLP” (Bioorg Med Chem Lett, 2001).

Assays:
[1] = Chemotactic index (C.I.) which is the ratio: (migration toward test attractant minus migration toward the buffer)/(migration toward the buffer).; assay type: functional
[2] = Release of neutrophil granule enzymes was evaluated by determining lysozyme activity modified for microplate-based assays.

SMILES	Chemotactic index [1]	Lysozyme release [2] [%]
COC(=O)[C@H](Cc1ccccc1)NC(=O)[C@H](CC(=O)N[C@@H](CCSC)C(=O)N[C@@H](CC(C)C)C(=O)N[C@@H](Cc1ccccc1)C(=O)O)NC(=O)[C@H](CCSC)NC=O	0.5	65
COC(=O)[C@H](Cc1ccccc1)NC(=O)[C@H](CC(C)C)NC(=O)[C@H](CCSC)NC=O	1	60
COC(=O)[C@H](Cc1ccccc1)NC(=O)[C@H](CCCCNC(=O)N[C@@H](CCSC)C(=O)N[C@@H](CC(C)C)C(=O)N[C@@H](Cc1ccccc1)C(=O)O)NC(=O)[C@H](CCSC)NC=O	0.7	70
